Source: patent US9068013B2, “Recombinant lectins, binding-site modified lectins and uses thereof” (SMART CELLS, INC., priority 2010, dated 2015)

Columns and labels:
[1] = Gel formation with glycogen (OD490 turbidity); settings: 10 mg/ml rCon A, 10 or 1 mg/ml glycogen, pH 7 BES buffer, 10 minutes room temperature
Procedure: rCon A synthesised and purified according to Examples 42-44 were tested for their ability to form gels with glycogen. Alpha methyl mannose present in the samples was initially removed as follows. Samples were added to BioSpin 30 columns (Bio-Rad, Hercules, Calif.) that had been previously equilibrated with deionized water. The BioSpin columns were centrifuged for 4 minutes at 1000×g, and the resulting eluent contained rCon A samples that had been substantially desalted and alpha methyl mannose removed. Samples were combined and A280 measurements were obtained. Typically, the A280 measurements correlated with the A280 measurements obtained before removal of alpha methyl mannose.
The following assay was then used to measure gel formation with glycogen. Unmodified Oyster glycogen Type II (Sigma Aldrich, St. Louis, Mo.) was dissolved at 10 mg/ml in pH 7, 200 mM BES buffer (Sigma Aldrich, St. Louis, Mo.). […] The plate was allowed to develop at room temperature for 10 minutes, after which time the turbidity of each plate well was assayed using a commercially available microplate reader (SpectraMAX, Molecular Devices, Mountain View, Calif.) at a wavelength of 490 nm (OD490). […]

[2] = test system: fasted normal non-diabetic rats; assay: Blood glucose depression profile after subcutaneous injection; assay type: in vivo, rat (Male Sprague-Dawley); settings: non-diabetic SD rats
Procedure: (§1) Blood glucose values were measured using commercially available test strips (Precision Xtra, Abbott Laboratories, Abbott Park, Ill.).
as §1, §1
Blood glucose values were measured using commercially available test strips (Precision Xtra, Abbott Laboratories, Abbott Park, Ill.). In addition, blood from each timepoint was centrifuged at 4 C to collect the serum.

[3] = subcutaneous, 0.25 ml of 20 U of equivalent insulin/ml

## SCI-1: recombinant Con A construct, amino acid sequence SEQ ID NO: 1 (wild-type Con A)
[1]
  gel formation with glycogen: formed gels with glycogen that were comparable to gels formed by native (plant-derived) Con A controls

## insulin-dextran: comparative insulin-dextran (MW 70K) conjugate made by CNBr coupling, 10% (w/w) insulin
[2]; [3]
  time serum glucose levels remain depressed post injection: at least five
  time to reach the glucose nadir (Tnadir): about 3 hours

## insulin-glycogen: comparative conjugate of insulin with oyster glycogen (Type II) by CNBr coupling, Example 32
[2]; 2.5 equivalent U of insulin/kg subcutaneous
  glucose lowering compared to the insulin-dextran conjugates: lower glucose levels much more rapidly and to a greater extent
